In ChEMBL document CHEMBL1201862, “PubChem BioAssay data set” (2004):
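All cell lines were grown in 96-well plates and treated with compound for 48 hours. The concentration for 50% growth inhibition is given as GI50.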 The source made the active and inactive calls. Rule as the data show it: active = GI50 up to about 1.1 µM and inactive = higher.

What was measured:
Test in all cases: growth of human tumour cells (NCI), 48 h
EKVX = system: EKVX
SR = system: SR
UACC-62 = system: UACC-62
NCI-H460 = system: NCI-H460
A498 = system: A498
UO-31 = system: UO-31
SN12C = system: SN12C
M14 = system: M14
NCI/ADR-RES = system: NCI/ADR-RES
SK-MEL-28 = system: SK-MEL-28
NCI-H522 = system: NCI-H522
KM12 = system: KM12
SF-268 = system: SF-268
K562 = system: K562
CCRF-CEM = system: CCRF-CEM
SK-OV-3 = system: SK-OV-3
U-251 = system: U-251
SK-MEL-5 = system: SK-MEL-5
SNB-19 = system: SNB-19
HOP-92 = system: HOP-92

Measured: GI50

Oc1nc2ccccc2c2oc3ccccc3c12
inactive: EKVX 2.9 µM | SR > 100 µM | UACC-62 > 100 µM | NCI-H460 > 100 µM | A498 > 100 µM | UO-31 > 100 µM | SN12C > 100 µM | M14 > 100 µM | NCI/ADR-RES > 100 µM | SK-MEL-28 > 100 µM | NCI-H522 > 100 µM | KM12 > 100 µM | SF-268 > 100 µM | K562 > 100 µM | CCRF-CEM > 100 µM | SK-OV-3 76 µM | U-251 > 100 µM | SK-MEL-5 > 100 µM | SNB-19 > 100 µM | HOP-92 23.2 µM
